According to patent US12325708B2, “Adenosine 2 receptor antagonists” (Nektar Therapeutics, priority 2019, dated 2025):
Where two headings read alike, the source gives them in different places.

Key:
[1] = biological target: T1, A2A receptor (Homo sapiens, UniProt P29274); assay: Radioligand receptor binding assay, A2A receptor; details: cell membranes overexpressing A2A receptor, read-out: Potency Ki A2A
T1 construct: purchased
Method: (§1) Using conventional receptor binding assay techniques, Compounds 1-24 were assayed to determine binding activity at the A2A, A1, and A3 receptors with the results shown in Table 7.
(§2) Receptor binding affinity of Compounds 1-24 was measured using radioligand binding assays using commercially obtained cell membranes prepared from cell lines overexpressing the A2A, A1, or A3 receptors. Briefly, cell membrane preparations from cells expressing the specific receptor were mixed with the appropriate [^3H]-labeled tracer for the specific receptor and the test compound or a known inhibitor of receptor-ligand binding. Following 60 min incubation at room temperature to allow receptor-ligand complex formation, the complexes were collected by filtration, washed with 50 mM Tris HCl (pH 7.5) to remove radioligand that was not receptor-bound, and the remaining radioactivity determined by liquid scintillation counting. Specific radioligand binding was calculated for each test compound concentration and IC50 values were determined by non-linear, regression analysis. Inhibition constants (Ki) were calculated using the equation of Cheng and Prusoff using the observed IC50 of the tested compound, the concentration of radioligand employed in the assay and the experimentally determined values for the Kd of the ligand.

[2] = biological target: T2, A1 receptor (Homo sapiens, UniProt P30542); assay: Radioligand receptor binding assay, A1 receptor; details: cell membranes overexpressing A1 receptor, read-out: Potency Ki A1
T2 construct: purchased
T2 sequence (P30542 1-326): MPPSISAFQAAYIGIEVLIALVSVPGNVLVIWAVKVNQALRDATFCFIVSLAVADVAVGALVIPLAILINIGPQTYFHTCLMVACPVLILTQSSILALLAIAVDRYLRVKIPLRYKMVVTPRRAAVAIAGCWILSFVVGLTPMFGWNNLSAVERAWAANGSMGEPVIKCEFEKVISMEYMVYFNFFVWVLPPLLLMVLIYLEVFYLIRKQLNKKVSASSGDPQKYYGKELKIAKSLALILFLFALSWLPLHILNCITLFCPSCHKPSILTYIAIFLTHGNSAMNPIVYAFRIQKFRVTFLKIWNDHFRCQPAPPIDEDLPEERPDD
Method: as §1, §2

[3] = Plasma pharmacokinetic parameters following intravenous (IV) or oral (PO) administration in rats; format: in vivo, Sprague-Dawley rats; details: rat; for Cmax: read-out: Cmax; for Tmax: read-out: Tmax
Method: (§3) Adult male Sprague-Dawley rats (230-250 g) (Charles River Labs, Hollister, CA) were utilized for the study. There were 2 rats/group. All animals were food fasted overnight with water provided ad libitum at all times. Compounds 1, 4, 14 and 19 were synthesized as described in Examples 2, 17, 7, and 12, respectively, and formulated in injectable water.
(§4) The morning of each dosing, individual doses were calculated based on current body weights on the day of dosing. The jugular vein cannula (JVC) and the carotid artery cannula (CAC) were externalized, flushed with HEP/saline (10 IU/mL HEP/mL saline), plugged, and labeled to identify the jugular vein and the carotid artery. The IV group animals were dosed at 0.5 mg/kg of Compound 1, 4, 14 or 19, respectively, intravenously via the jugular vein, while the PO dose was administered 2.5 mg/kg of Compound 1, 4, 14 or 19, respectively, orally via gavage. For the IV group, immediately following the dose of test article, the dead volume of the catheter was flushed with 0.9% saline to ensure the animals received the full dose.
Approximately 0.2 mL of blood was collected per time point from JVC. Blood samples were collected at 2 (IV group only), 5, 15, 30, 60, 120, 240, 360, 420 (Compound 19 only), 480, 720 (Compound 19 only), and 1440 minutes via the CAC and transferred immediately into K2EDTA coated tubes pre-loaded 2 μl with quenching cocktail and placed on wet ice. The samples were centrifuged within 30 min after collection at 10,000 RPM for 5 minutes and the resulting plasma was separated. Plasma was transferred into microfuge tubes and placed on dry ice immediately. The plasma samples were stored at approximately −70° C. until bioanalysis.
Plasma samples were extracted by protein precipitation with acetonitrile containing 0.1% formic acid and doxepin for Compound 1 (available from Sigma-Aldrich) or SCH58261 for Compounds 4, 14 and 19 (available from Sigma-Aldrich) as an internal standard. Following vortex and centrifugation, supernatant was diluted 3-fold with water containing 0.1% formic acid and analyzed by LC-MS/MS.
Pharmacokinetic parameters (PK) were determined by non-compartmental analysis (NCA) using Phoenix 64 WinNonlin (version 8) and Dotmatics (version 5.0). Nominal doses and time points were used for the analysis.
The following PK parameters were estimated using plasma concentration-time profile of each animal with the results presented in Table 3: • AUCinf Area under the concentration-time from zero to time infinity • AUClast Area under the concentration-time from zero to time of last concentration value • F Bioavailability • CL Total body clearance • Cmax Maximum (peak) concentration • MRTlast Mean residence time to last observable concentration • Tmax Time to reach maximum or peak concentration following administration • Vss Volume of distribution at steady state
as §3, with “Compound 1 was” for “Compounds 1, 4, 14 and 19 were”, “Example 2” for “Examples 2, 17, 7, and 12, respectively,”
as §4, with “1” for “1, 4, 14 or 19, respectively,”
Approximately 0.2 mL of blood was collected per time point from JVC. […]

[4] = Brain-to-plasma ratio (B/P) after administration; format: in vivo, Sprague-Dawley rats; details: Sprague-Dawley, rat, brain-to-plasma ratio at 1 h
From the text: A similar unexpected result was obtained when the phenyl ring present on Compound 1 was replaced with a halogen substituted pyridine. The halogen was previously introduced on the phenyl ring with the aim of blocking a possible metabolic soft-spot, with similar results observed as for Compound 1 in terms of exposure, clearance and bioavailability (Compound 10 and Compound 15). The substituted pyridine ring was designed to modulate the lipophilicity and polar surface area, as well as to address metabolic soft-spot concerns. Clearance and bioavailability parameters remain similar between substituted phenyl and pyridine (Compound 4 and Compound 14) analogs, which span a range in cLogP of 2.7-3.2. It was therefore surprising the significant improvement in exposure and clearance observed for the more lipophilic Compound 19. […] A compound is commonly deemed to be a brain penetrant if the brain-to-blood/plasma concentration ratio (B/P) is greater than 0.04 using methods as known in the art (Schaffer, Annual Reports in Medicinal Chemistry, 45:55-70, 2010).
Plasma pharmacokinetic parameters were determined following oral (PO) administration of further compounds essentially as described in Example 28 with the results shown in Table 6.

[5] = male, Sprague-Dawley, plasma, intravenous, 0.5 mg/kg, Table 2 summary of Example 27, values marked 1 are the average of experiments
[6] = male, Sprague-Dawley, plasma, iv, 0.5 mg/kg, IV 0.5 mg/kg, injectable water
[7] = male, Sprague-Dawley, plasma, oral, 2.5 mg/kg, Table 2 summary of Example 27, values marked 1 are the average of experiments
[8] = male, Sprague-Dawley, plasma, po, 2.5 mg/kg, PO 2.5 mg/kg via gavage, injectable water
[9] = male, Sprague-Dawley, plasma, 2.5 mg/kg, Table 6, oral (PO) administration essentially as described in Example 28
[10] = male, Sprague-Dawley, plasma, intravenous, 0.5 mg/kg, Table 6, essentially as described in Example 28
[11] = male, Sprague-Dawley, plasma, po, 2.5 mg/kg, Table 6, oral (PO) administration essentially as described in Example 28

T1 sequence (P29274 whole entry): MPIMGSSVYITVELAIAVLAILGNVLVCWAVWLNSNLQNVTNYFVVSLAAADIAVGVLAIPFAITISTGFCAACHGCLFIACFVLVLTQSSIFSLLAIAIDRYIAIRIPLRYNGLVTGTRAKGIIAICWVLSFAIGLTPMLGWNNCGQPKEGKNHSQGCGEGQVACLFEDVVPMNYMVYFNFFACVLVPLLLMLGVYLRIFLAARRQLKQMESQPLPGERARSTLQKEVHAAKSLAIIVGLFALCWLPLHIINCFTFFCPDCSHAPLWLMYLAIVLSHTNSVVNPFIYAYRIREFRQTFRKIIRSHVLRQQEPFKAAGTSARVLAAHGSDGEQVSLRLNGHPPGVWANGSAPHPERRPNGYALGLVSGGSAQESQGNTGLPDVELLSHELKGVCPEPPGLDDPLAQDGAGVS

Row | Ki [1] | Ki [2] | AUC [3, 9] | clearance [3, 10] | bioavailability [3, 11] | Kp at 1 h ([4]; oral, 2.5 mg/kg, Table 6) | SMILES | further results
1 | 43 nM | > 10000 nM | 1070 ng·h/mL | 28 mL/min/kg | 70% | 0.11 | COCCOc1ccc(N2CCN(CCNc3cc4nc(-c5ncco5)nn4c(N)n3)CC2)cc1 [Compound 24, N^7-(2-{4-[4-(2-methoxyethoxy)phenyl]piperazin-1-yl}ethyl)-2-(1,3-oxazol-2-yl)[1,2,4]triazolo[1,5-c]pyrimidine-5,7-diamine] | 
2 | 4 nM | 32400 nM | 709 ng·h/mL | 33 mL/min/kg | 57% | 0.06 | [2H]C([2H])([2H])OC([2H])([2H])C([2H])([2H])Oc1cnc(N2CCN(CCN(C)c3cc4nc(-c5ncco5)nn4c(N)n3)CC2)c(F)c1 [Compound 13, N^7-(2-{4-[3-fluoro-5-({2-[(^2H3)methyloxy](^2H4)ethyl}oxy)pyridin-2-yl]piperazin-1-yl}ethyl)-N^7-methyl-2-(1,3-oxazol-2-yl)[1,2,4]triazolo[1,5-c]pyrimidine-5,7-diamine] | 
3 | 2.6 nM | 1270 nM |  |  |  |  | COCCOc1ccc(N2CCN(CCN(C)c3cc4nc(-c5ccco5)nn4c(N)n3)CC2)cc1 [Reference compound, 2-(furan-2-yl)-N^7-(2-(4-(4-(2-methoxyethoxy)phenyl)piperazin-1-yl)ethyl)-N^7-methyl-[1,2,4]triazolo[1,5-c]pyrimidine-5,7-diamine, reference compound] | clearance [3, 5]: 34 mL/min/kg; AUC [3, 7]: 408 ng·h/mL; bioavailability [3, 7]: 34%; Kp at 1 h ([4]; Table 2): 0.17
4 | 11 nM | 3200 nM | 280 ng·h/mL | 38 mL/min/kg | 25% | 0.03 | COCCOc1ncc(N2CCN(CCN(C)c3cc4nc(-c5ncco5)nn4c(N)n3)CC2)cc1C(F)(F)F [Compound 22, N^7-(2-{4-[6-(2-methoxyethoxy)-5-(trifluoromethyl)pyridin-3-yl]piperazin-1-yl}ethyl)-N^7-methyl-2-(1,3-oxazol-2-yl)[1,2,4]triazolo[1,5-c]pyrimidine-5,7-diamine] | 
5 | 6 nM | > 4000 nM | 1170 ng·h/mL | 23 mL/min/kg | 65% | 0.04 | [2H]C([2H])(N1CCN(c2ccc(OCCOC)cc2)CC1)C([2H])([2H])N(C)c1cc2nc(-c3ncco3)nn2c(N)n1 [Compound 9, N^7-[2-{4-[4-(2-methoxyethoxy)phenyl]piperazin-1-yl}(^2H4)ethyl]-N^7-methyl-2-(1,3-oxazol-2-yl)[1,2,4]triazolo[1,5-c]pyrimidine-5,7-diamine] | 
6 | 2.3 nM | 16900 nM | 708 ng·h/mL | 30 mL/min/kg | 63% |  | [2H]C([2H])([2H])OCCOc1cnc(N2CCN(CCN(C)c3cc4nc(-c5ncco5)nn4c(N)n3)CC2)c(F)c1 [Compound 11, N^7-{2-[4-(3-fluoro-5-{2-[(^2H3)methyloxy]ethoxy}pyridin-2-yl)piperazin-1-yl]ethyl}-N^7-methyl-2-(1,3-oxazol-2-yl)[1,2,4]triazolo[1,5-c]pyrimidine-5,7-diamine] | 

Row | SMILES | Ki [1] | Ki [2] | AUC [3, 9] | clearance [3, 10] | bioavailability [3, 11] | Kp at 1 h ([4]; oral, 2.5 mg/kg, Table 6) | further results
7 | COCCOc1cnc(N2CCN(CCN(C)c3cc4nc(-c5ncco5)nn4c(N)n3)CC2)c(C(F)(F)F)c1 [Compound 19, N^7-(2-{4-[5-(2-methoxyethoxy)-3-(trifluoromethyl)pyridin-2-yl]piperazin-1-yl}ethyl)-N^7-methyl-2-(1,3-oxazol-2-yl)[1,2,4]triazolo[1,5-c]pyrimidine-5,7-diamine] | 4 nM | 16000 nM |  |  |  |  | clearance [3, 5]: 7 mL/min/kg; AUC(0-inf) [3, 6]: 1230 ng·h/mL; AUC(0-t) [3, 6]: 1220 ng·h/mL; MRT last [3, 6]: 1.48 h; clearance [3, 6]: 6.85 mL/min/kg; Cmax [3, 6]: 1020 ng/mL; Tmax [3, 6]: 0.033 h; Vd ([3]; male, Sprague-Dawley, plasma, iv, 0.5 mg/kg, IV 0.5 mg/kg, injectable water, read-out: Vss obs): 0.635 L/kg; AUC [3, 7]: 4980 ng·h/mL; bioavailability [3, 7]: 83%; AUC(0-inf) [3, 8]: 5050 ng·h/mL; AUC(0-t) [3, 8]: 4980 ng·h/mL; MRT last [3, 8]: 2.65 h; Cmax [3, 8]: 1300 ng/mL; Tmax [3, 8]: 1.25 h; Total clearance as % liver blood flow ([3]; IV): ~10 % liver blood flow; MRTlast ([3]; IV 0.5 mg/kg, injectable water, 0.5 mg/kg): 1.4825 h; CL ([3]; PO 2.5 mg/kg row of Table 3): 9.05 mL/min/kg; F ([3]; PO 2.5 mg/kg vs IV 0.5 mg/kg): 82.7%; Kp at 1 h ([4]; Table 2): 0.01
